# According to PMC12281424, “A Rac-specific competitive inhibitor of guanine nucleotide binding reduces metastasis in triple-negative breast cancer” (Cell Reports Medicine, 2025):
# Assays:
# PKCβI(h) = PKCβI(h) (Homo sapiens, UniProt P05771); assay: Kinase Profiler; assay type: biochemical
# Description: (§1) The kinase profiler was performed by the company Eurofins (Discovery, Panlab and Cerep).
# Src(T341M)(h) = Src(T341M)(h) (Homo sapiens, UniProt P12931, T341M); assay: Kinase Profiler; assay type: biochemical
# Description: as §1
# PEK(h) = PEK(h) (Homo sapiens, UniProt Q9NZJ5); assay: Kinase Profiler; assay type: biochemical
# Description: as §1
# GSK3α(h) = GSK3α(h) (Homo sapiens, UniProt P49840); assay: Kinase Profiler; assay type: biochemical
# Description: (§2) Blood cell counts, kinase profiler, safety screen, bacterial cytotoxicity, Ames, micronucleus assays were performed by the company Eurofins (France). The kinase profiler was performed by the company Eurofins (Discovery, Panlab and Cerep).
# IKKε(h) = IKKε(h) (Homo sapiens, UniProt Q14164); assay: Kinase Profiler; assay type: biochemical
# Description: as §2
# EGFR(L858R)(h) = EGFR(L858R)(h) (Homo sapiens, UniProt P00533, L858R); assay: Kinase Profiler; assay type: biochemical
# Description: as §1
# STK32C(h) = STK32C(h) (Homo sapiens, UniProt Q86UX6); assay: Kinase Profiler; assay type: biochemical
# Description: as §1
# CK2α1(h) = CK2α1(h) (Homo sapiens, UniProt P68400); assay: Kinase Profiler; assay type: biochemical
# Description: as §1
# RHOA = RHOA (Homo sapiens, UniProt P61586); assay: Surface plasmon resonance; assay type: binding; design: purchased Cytoskeleton RC01; conditions: A41 0 to 25 μM
# Description: SPR immobilization was performed at 25°C. RAC1, RHOA and CDC42 purified proteins (respectively […] and CD01, Cytoskeleton) were diluted to 5 μg/mL in Na^+ acetate buffer (pH 5.0) and injected into sensor chip CM5 (GE Healthcare) in a Biacore T200 (GE Healthcare) that was activated with NHS/EDC buffer. Approximately 5,000 response units of the purified protein were immobilized on the biosensor chip. Biosensor chips were blocked by an injection of 1 mM ethanolamine (pH 8.5). SPR analysis was performed at 25°C in HBSEP running buffer (5% DMSO) with or without EDTA (20 mM). A41 compound was injected over the RAC1, RHOA or CDC42 functionalized surface in concentration range from 0 to 25μM. Association and dissociation phases were monitored during 60s and 300s, respectively.
# [1] = target: Transporter, Serotonin (5- Hydroxytryptamine) (SERT) (Homo sapiens, UniProt P31645); assay: Safety screen; assay type: binding
# Description: (§3) Blood cell counts, kinase profiler, safety screen, bacterial cytotoxicity, Ames, micronucleus assays were performed by the company Eurofins (France).
# PRK1(h) = PRK1(h) (Homo sapiens, UniProt Q16512); assay: Kinase Profiler; assay type: biochemical
# Description: as §2
# PI3KC2g(h) = PI3KC2g(h) (Homo sapiens, UniProt O75747); assay: Kinase Profiler; assay type: biochemical
# Description: as §1
# Haspin(h) = Haspin(h) (Homo sapiens, UniProt Q8TF76); assay: Kinase Profiler; assay type: biochemical
# Description: as §1
# Lck(h) activated = Lck(h) activated (Homo sapiens, UniProt P06239); assay: Kinase Profiler; assay type: biochemical
# Description: as §1
# mTOR(h) = mTOR(h) (Homo sapiens, UniProt P42345); assay: Kinase Profiler; assay type: biochemical
# Description: as §1
# CDK17/cyclinY(h) = CDK17/cyclinY(h) (Homo sapiens, UniProt Q00537); assay: Kinase Profiler; assay type: biochemical
# Description: as §2
# Calcium Channel N-Type = Calcium Channel N-Type (Rattus norvegicus, UniProt Q02294); assay: Safety screen; assay type: binding
# Rsk2(h) = Rsk2(h) (Homo sapiens, UniProt P51812); assay: Kinase Profiler; assay type: biochemical
# Description: as §1
# [2] = target: PI3K (p110a(E545K)/p85a)(m) (Mus musculus, UniProt P42337, E545K); assay: Kinase Profiler; assay type: biochemical
# Description: as §2
# PI3K (p120g)(h) = PI3K (p120g)(h) (Homo sapiens, UniProt P48736); assay: Kinase Profiler; assay type: biochemical
# Description: as §2
# TGFBR1(h) = TGFBR1(h) (Homo sapiens, UniProt P36897); assay: Kinase Profiler; assay type: biochemical
# Description: as §2
# Fms(Y969C)(h) = Fms(Y969C)(h) (Homo sapiens, UniProt P07333, Y969C); assay: Kinase Profiler; assay type: biochemical
# Description: as §1
# CDKL3(h) = CDKL3(h) (Homo sapiens, UniProt Q8IVW4); assay: Kinase Profiler; assay type: biochemical
# Description: as §1
# CK2α2(h) = CK2α2(h) (Homo sapiens, UniProt P19784); assay: Kinase Profiler; assay type: biochemical
# Description: as §1
# HPK1(h) = HPK1(h) (Homo sapiens, UniProt Q92918); assay: Kinase Profiler; assay type: biochemical
# Description: as §1
# MEK2(h) = MEK2(h) (Homo sapiens, UniProt P36507); assay: Kinase Profiler; assay type: biochemical
# Description: as §1
# GABAB1A = GABAB1A (Homo sapiens, UniProt Q9UBS5); assay: Safety screen; assay type: binding
# Description: as §3
# Adrenergic α1B = Adrenergic α1B (Rattus norvegicus, UniProt P15823); assay: Safety screen; assay type: binding
# Description: as §3
# cKit(V654A)(h) = cKit(V654A)(h) (Homo sapiens, UniProt P10721, V654A); assay: Kinase Profiler; assay type: biochemical
# Description: as §2
# ALK2(h) = ALK2(h) (Homo sapiens, UniProt Q04771); assay: Kinase Profiler; assay type: biochemical
# Description: as §1
# PKR(h) = PKR(h) (Homo sapiens, UniProt P19525); assay: Kinase Profiler; assay type: biochemical
# Description: as §1
# [3] = tested on: Calcium Channel L-Type, Benzothiazepine; assay: Safety screen; assay type: binding, rat
# CDK12/cyclinK(h) = CDK12/cyclinK(h) (Homo sapiens, UniProt Q9NYV4); assay: Kinase Profiler; assay type: biochemical
# Description: as §2
# PKCζ(h) = PKCζ(h) (Homo sapiens, UniProt Q05513); assay: Kinase Profiler; assay type: biochemical
# Description: as §1
# CaMKK2(h) = CaMKK2(h) (Homo sapiens, UniProt Q96RR4); assay: Kinase Profiler; assay type: biochemical
# Description: as §1
# CK1γ2(h) = CK1γ2(h) (Homo sapiens, UniProt P78368); assay: Kinase Profiler; assay type: biochemical
# CK1γ2(h), sequence (P78368 whole entry): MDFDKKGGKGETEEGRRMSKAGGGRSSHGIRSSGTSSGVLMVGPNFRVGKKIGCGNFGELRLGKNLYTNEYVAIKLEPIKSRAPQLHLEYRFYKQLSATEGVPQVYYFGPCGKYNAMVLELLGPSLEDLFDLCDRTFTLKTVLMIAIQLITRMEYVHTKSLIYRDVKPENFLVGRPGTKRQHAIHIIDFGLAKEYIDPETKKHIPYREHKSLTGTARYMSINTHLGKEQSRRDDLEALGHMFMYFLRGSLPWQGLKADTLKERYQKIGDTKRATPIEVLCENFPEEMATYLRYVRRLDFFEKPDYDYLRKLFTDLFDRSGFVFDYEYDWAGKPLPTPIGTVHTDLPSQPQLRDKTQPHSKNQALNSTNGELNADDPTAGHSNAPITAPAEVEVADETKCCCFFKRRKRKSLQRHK
# Description: as §2
# Haspin(h), sequence (Q8TF76 whole entry): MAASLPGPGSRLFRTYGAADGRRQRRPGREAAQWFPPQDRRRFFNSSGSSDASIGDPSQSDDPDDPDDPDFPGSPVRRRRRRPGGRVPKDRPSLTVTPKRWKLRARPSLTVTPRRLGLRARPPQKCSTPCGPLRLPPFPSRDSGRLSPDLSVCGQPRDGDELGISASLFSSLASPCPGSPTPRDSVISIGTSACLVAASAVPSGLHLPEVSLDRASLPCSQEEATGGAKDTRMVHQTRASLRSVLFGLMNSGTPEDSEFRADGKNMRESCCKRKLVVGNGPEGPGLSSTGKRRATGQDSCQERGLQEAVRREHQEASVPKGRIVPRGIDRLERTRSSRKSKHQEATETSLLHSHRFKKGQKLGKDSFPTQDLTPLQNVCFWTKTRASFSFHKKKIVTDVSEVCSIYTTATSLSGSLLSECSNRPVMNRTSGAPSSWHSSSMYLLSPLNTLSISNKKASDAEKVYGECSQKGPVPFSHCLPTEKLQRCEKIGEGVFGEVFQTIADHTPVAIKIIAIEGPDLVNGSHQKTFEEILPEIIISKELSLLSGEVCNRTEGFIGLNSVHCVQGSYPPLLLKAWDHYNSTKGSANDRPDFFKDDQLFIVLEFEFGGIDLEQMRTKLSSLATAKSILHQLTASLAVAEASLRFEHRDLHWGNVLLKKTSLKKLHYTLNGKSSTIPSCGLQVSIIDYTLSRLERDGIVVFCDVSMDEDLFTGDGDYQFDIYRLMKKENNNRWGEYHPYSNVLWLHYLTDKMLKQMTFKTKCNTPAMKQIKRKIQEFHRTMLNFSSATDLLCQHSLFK
# ALK2(h), sequence (Q04771 21-509): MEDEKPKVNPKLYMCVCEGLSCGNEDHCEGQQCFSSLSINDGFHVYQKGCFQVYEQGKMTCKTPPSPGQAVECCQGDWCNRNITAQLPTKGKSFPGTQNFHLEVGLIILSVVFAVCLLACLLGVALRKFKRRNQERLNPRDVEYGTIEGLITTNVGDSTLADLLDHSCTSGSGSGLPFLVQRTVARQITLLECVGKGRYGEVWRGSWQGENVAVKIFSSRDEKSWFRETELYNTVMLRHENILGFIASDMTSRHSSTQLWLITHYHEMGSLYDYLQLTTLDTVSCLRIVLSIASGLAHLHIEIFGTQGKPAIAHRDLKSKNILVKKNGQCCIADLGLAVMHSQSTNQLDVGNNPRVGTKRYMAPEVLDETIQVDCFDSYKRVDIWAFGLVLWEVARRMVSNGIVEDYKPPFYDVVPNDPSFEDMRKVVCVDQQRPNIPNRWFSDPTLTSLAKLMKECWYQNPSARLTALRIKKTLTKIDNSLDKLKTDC
# PI3K (p120g)(h), sequence (P48736 whole entry): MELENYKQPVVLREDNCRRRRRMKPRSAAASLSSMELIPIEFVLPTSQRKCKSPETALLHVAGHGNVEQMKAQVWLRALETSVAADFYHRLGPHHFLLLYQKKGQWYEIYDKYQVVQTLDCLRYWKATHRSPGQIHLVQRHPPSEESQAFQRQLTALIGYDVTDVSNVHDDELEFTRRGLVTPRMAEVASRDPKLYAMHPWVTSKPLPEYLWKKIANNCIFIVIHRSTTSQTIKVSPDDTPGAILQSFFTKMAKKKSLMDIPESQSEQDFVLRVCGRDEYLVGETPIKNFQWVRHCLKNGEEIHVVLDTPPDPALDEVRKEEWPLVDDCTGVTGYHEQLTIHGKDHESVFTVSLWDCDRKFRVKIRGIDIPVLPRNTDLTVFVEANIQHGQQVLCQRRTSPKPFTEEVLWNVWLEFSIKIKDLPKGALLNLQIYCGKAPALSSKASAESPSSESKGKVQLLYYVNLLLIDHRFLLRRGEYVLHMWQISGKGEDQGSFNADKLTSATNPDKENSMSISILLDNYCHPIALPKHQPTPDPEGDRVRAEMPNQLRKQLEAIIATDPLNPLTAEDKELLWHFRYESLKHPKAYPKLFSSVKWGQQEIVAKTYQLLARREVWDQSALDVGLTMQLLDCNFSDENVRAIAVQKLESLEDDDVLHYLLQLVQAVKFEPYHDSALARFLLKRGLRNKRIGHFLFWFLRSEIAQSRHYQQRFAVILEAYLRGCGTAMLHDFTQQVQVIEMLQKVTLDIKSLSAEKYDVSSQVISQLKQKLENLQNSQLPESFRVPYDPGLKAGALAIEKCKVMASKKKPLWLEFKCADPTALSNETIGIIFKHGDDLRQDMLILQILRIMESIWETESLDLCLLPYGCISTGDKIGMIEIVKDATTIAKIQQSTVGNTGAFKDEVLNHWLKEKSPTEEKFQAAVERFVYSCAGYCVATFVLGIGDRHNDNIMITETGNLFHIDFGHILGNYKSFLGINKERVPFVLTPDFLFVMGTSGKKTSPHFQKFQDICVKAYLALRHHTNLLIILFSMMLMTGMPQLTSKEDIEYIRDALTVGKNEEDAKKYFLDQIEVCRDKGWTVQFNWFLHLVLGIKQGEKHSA
# Fms(Y969C)(h), sequence (P07333 20-972 Y969C): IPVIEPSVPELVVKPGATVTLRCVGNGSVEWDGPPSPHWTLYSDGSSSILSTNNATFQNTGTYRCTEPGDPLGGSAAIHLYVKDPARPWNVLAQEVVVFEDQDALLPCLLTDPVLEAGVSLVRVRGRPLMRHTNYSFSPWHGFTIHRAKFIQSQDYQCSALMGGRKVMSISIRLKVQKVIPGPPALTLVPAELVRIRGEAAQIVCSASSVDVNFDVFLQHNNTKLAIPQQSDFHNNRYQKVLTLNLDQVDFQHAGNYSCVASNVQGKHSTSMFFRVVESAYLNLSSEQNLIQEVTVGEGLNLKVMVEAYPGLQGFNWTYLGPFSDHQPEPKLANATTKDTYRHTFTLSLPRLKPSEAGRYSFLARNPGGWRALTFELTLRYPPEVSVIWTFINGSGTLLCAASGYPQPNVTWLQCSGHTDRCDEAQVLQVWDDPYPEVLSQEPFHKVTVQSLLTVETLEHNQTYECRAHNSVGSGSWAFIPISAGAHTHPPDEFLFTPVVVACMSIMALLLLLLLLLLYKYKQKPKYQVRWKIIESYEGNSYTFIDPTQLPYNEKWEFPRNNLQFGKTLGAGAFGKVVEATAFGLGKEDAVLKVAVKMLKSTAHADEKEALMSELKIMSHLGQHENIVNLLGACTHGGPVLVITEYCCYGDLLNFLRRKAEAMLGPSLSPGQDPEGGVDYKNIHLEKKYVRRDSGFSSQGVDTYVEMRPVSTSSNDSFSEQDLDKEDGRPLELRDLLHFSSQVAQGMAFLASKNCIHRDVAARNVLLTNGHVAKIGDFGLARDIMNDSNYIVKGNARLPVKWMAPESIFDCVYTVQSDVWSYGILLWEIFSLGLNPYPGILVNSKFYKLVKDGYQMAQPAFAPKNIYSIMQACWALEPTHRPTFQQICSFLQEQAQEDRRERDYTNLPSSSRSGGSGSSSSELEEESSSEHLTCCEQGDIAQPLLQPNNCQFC
# GABAB1A, sequence (Q9UBS5 15-961 limits assumed): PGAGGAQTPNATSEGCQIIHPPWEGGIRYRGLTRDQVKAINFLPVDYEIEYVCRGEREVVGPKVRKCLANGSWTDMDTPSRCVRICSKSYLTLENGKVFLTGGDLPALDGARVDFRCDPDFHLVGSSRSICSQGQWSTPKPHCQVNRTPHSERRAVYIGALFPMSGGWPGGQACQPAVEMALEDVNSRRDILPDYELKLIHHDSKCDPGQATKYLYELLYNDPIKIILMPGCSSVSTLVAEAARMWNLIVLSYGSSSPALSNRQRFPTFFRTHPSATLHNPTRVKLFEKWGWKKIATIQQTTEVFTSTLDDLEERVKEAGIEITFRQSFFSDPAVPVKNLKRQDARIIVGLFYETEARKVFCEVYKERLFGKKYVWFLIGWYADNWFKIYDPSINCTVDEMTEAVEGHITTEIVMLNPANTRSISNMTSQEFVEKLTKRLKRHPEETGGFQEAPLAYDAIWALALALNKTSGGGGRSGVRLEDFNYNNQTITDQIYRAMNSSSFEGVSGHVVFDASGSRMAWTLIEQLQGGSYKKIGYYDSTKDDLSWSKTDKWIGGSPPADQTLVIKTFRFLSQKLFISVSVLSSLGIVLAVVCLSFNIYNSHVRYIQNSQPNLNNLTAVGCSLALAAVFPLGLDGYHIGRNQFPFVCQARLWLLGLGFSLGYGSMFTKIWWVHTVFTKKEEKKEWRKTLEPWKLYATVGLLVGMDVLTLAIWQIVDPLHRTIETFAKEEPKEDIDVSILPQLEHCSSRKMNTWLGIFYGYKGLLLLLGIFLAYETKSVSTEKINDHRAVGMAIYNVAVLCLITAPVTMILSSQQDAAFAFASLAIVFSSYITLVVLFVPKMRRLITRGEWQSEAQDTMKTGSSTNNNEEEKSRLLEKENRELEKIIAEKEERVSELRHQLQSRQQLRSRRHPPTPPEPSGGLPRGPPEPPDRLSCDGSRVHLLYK
# RHOA, sequence (P61586 whole entry): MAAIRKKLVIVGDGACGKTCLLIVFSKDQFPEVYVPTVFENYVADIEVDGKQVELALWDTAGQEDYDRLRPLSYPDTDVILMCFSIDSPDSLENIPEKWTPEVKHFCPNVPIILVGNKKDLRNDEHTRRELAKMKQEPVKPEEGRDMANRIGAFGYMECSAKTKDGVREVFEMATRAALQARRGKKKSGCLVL
smiles,measurement,setting,value
COc1ccc(OC)c(NS(=O)(=O)c2ccc(NC(=O)CCSc3ccc(C)cc3)cc2)c1 [Compound A41],Activity(%),PKCβI(h),98%
same,Activity(%),Src(T341M)(h),89%
same,Activity(%),PEK(h),102%
same,Activity(%),GSK3α(h),90%
same,Activity(%),IKKε(h),106%
same,Activity(%),EGFR(L858R)(h),104%
same,Activity(%),STK32C(h),105%
same,Activity(%),CK2α1(h),80%
same,binding,RHOA,No binding was measured
same,% inh.,[1],-3%
same,Activity(%),PRK1(h),93%
same,Activity(%),PI3KC2g(h),114%
same,Activity(%),Haspin(h),116%
same,Activity(%),Lck(h) activated,90%
same,Activity(%),mTOR(h),101%
same,Activity(%),CDK17/cyclinY(h),96%
same,% inh.,Calcium Channel N-Type,3%
same,Activity(%),Rsk2(h),86%
same,Activity(%),[2],100%
same,Activity(%),PI3K (p120g)(h),104%
same,Activity(%),TGFBR1(h),103%
same,Activity(%),Fms(Y969C)(h),107%
same,Activity(%),CDKL3(h),103%
same,Activity(%),CK2α2(h),109%
same,Activity(%),HPK1(h),98%
same,Activity(%),MEK2(h),109%
same,% inh.,GABAB1A,-6%
same,% inh.,Adrenergic α1B,41%
same,Activity(%),cKit(V654A)(h),99%
same,Activity(%),ALK2(h),100%
same,Activity(%),PKR(h),101%
same,% inh.,[3],46%
same,Activity(%),CDK12/cyclinK(h),100%
same,Activity(%),PKCζ(h),97%
same,Activity(%),CaMKK2(h),110%
same,Activity(%),CK1γ2(h),112%
